Assays:
5-HT3 receptors [1] = biological target: T1, 5-HT3 receptors (Oryctolagus cuniculus, UniProt A0A5F9C9J3); experiment: 5-HT3 antagonistic activity in the isolated right atrium of the rabbit heart; details: antagonism of 5-HT evoked increase in spontaneous rate of beating, read-out: apparent pKB (converted)
T1 construct: 5-HT3 receptors present on sympathetic nerve terminals in the heart; from tissue; host or cells: isolated right atrium of the rabbit heart (sympathetic nerve terminals)
T1 sequence (A0A5F9C9J3 1-494): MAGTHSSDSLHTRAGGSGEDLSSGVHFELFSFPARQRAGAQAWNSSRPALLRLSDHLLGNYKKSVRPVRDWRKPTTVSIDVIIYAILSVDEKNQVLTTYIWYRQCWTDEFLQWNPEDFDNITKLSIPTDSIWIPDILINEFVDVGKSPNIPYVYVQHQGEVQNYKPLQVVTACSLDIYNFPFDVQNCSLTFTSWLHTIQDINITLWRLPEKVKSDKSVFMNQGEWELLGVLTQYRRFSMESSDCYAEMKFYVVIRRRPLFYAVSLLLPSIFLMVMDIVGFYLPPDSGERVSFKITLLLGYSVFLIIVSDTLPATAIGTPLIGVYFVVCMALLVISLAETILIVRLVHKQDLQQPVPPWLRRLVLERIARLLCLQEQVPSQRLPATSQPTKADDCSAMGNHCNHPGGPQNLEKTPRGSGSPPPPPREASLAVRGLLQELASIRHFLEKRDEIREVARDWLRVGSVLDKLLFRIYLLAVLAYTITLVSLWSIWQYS
Experimental: The compounds of the invention are also tested for 5-HT3 antagonistic activity in the isolated right atrium of the rabbit heart based upon the method of Fozard J. R., Naunyn-Schmiedeberg's Arch. Pharmacol., 1984, 326, 36-44. This procedure relies upon the ability of 5-HT to stimulate 5-HT3 receptors present on sympathetic nerve terminals in the heart, causing release of noradrenaline which evokes an increase in the spontaneous rate of beating. The antagonist potency is expressed in a similar manner to that of the preceding test method i.e. as an apparent pKB.

5-HT3 receptors [2] = biological target: T2, 5-HT3 receptors (Rattus norvegicus, UniProt P35563); experiment: 5-HT3 receptor antagonism in the isolated vagus nerve of the rat (5-HT induced depolarization); details: isolated rat cervical vagus nerve; antagonism of 5-HT induced depolarization; from 5-HT concentration ratios; read-out: apparent pKB (converted)
T2 construct: isolated vagus nerve of the rat; from tissue; host or cells: isolated (cervical) vagus nerve of the rat
T2 sequence (P35563 24-483): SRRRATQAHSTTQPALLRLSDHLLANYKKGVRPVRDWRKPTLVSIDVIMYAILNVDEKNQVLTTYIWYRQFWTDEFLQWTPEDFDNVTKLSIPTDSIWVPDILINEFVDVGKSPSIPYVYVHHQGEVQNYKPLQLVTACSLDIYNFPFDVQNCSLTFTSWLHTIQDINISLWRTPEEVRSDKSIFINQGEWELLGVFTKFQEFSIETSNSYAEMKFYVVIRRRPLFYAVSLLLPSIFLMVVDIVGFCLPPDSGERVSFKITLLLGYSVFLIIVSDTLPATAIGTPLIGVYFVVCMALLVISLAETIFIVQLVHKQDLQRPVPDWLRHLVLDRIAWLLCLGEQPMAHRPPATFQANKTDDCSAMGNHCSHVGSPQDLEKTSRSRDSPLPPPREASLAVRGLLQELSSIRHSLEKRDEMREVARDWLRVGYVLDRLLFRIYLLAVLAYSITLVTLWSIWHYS
Experimental: The compound of the invention are tested for 5-HT3 receptor antagonism in the isolated vagus nerve of the rat by a method based upon that of Ireland S. J. and Tyers M. B., Brit. J. Pharmacol., 1987, 90, 229-238. The procedure relies upon the ability of 5-HT to induce depolarization of neurones in the cervical vagus nerve by a direct action on 5-HT3 receptors. A concentration-response curve to 5-HT induced depolarization is obtained and the antagonists are added to the bath containing the isolated nerve before repeating the 5-HT concentration-response curve. Antagonist potency is estimated for the 5-HT concentration ratios and expressed as an apparent pKB value (where KB is the antagonist dissociation constant).

In the case of `CN1[C@@H]2CC[C@H]1C[C@@H](Oc1ccc3ccccc3n1)C2` [Example 2, Endo-8-methyl-3-(2-quinolyloxy)-8-aza-bicyclo[3.2.1]octane], the Kb (5-HT3 receptors [1]) is reported as 2.51 nM and the Kb (5-HT3 receptors [2]) is reported as 31.6 nM.
